Consider 20 compounds from patent US8273774B2, “Phenoxypyridinylamide compounds” (AstraZeneca AB, priority 2008, dated 2012).

Sequence of recombinant Human Phosphodiesterase B2 (PDE4B2) (Q07343 1-564 isoform Q07343-2): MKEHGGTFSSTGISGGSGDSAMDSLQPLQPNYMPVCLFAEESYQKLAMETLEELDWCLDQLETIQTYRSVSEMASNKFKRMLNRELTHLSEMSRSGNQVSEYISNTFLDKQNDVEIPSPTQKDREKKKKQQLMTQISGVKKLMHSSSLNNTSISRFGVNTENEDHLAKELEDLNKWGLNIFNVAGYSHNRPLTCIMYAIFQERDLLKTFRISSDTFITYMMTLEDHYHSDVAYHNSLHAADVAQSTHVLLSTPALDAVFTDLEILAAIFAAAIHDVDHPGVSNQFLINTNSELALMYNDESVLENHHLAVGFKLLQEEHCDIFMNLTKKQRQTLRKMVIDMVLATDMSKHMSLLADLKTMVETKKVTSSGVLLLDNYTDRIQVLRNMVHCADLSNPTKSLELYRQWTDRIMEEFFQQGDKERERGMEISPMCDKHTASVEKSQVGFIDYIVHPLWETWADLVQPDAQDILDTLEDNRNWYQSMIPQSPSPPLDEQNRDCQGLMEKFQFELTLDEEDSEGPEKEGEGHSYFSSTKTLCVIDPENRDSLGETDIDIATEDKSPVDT

This test concerns the target recombinant Human Phosphodiesterase B2 (PDE4B2) (Homo sapiens, UniProt Q07343). Put plainly: Human Phosphodiesterase B2 Radiometric Assay. The test is classed as biochemical. The note with it: 0.1 μg/mL recombinant PDE4B2; preincubated at 30 C for 30 min; [3H]cyclic AMP 8 nM, stopped after 20 min; yttrium silicate SPA beads; read-out: PDE4B2 pIC50 (converted). In short, it runs like this:
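Compounds preincubated 30 min at 30 C with 0.1 μg/mL recombinant PDE4B2 in 50 mM HEPES pH 7.5, 8.3 mM MgCl2, 1.7 mM EGTA, 0.01% Brij 35.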
As to `Cc1nc(C(=O)N[C@H]2CC[C@@H](NC(=O)c3cc(F)cnc3Oc3cccc(-c4ccc(CCCN5CCCC5)cc4)c3)CC2)cs1` [Example 73, N-((1s,4s)-4-(5-fluoro-2-(4′-(3-(pyrrolidin-1-yl)propyl)biphenyl-3-yloxy)nicotinamido)cyclohexyl)-2-methylthiazole-4-carboxamide], the IC50 is 0.0631 nM.
Under `C[C@@H]1CN(Cc2ccc(-c3cccc(Oc4ncc(F)cc4C(=O)N[C@H]4CC[C@@H](NC(=O)c5cc6n(n5)CCCC6)CC4)c3)c(CN3CCOCC3)c2)C[C@H](C)N1` [Example 124, N-((1s,4s)-4-(2-(4′-(((3S,5R)-3,5-dimethylpiperazin-1-yl)methyl)-2′-(morpholinomethyl)biphenyl-3-yloxy)-5-fluoronicotinamido)cyclohexyl)-4,5,6,7-tetrahydropyrazolo[1,5-a]pyridine-2-carboxamide] stands 0.0501 nM; under `O=C(N[C@H]1CC[C@@H](NC(=O)c2cc(F)cnc2Oc2cccc(-c3ccc(CCCN4CCNCC4)cc3)c2)CC1)c1csc(CO)n1` [Example 141, N-((1s,4s)-4-(5-fluoro-2-(4′-(3-(piperazin-1-yl)propyl)biphenyl-3-yloxy)nicotinamido)cyclohexyl)-2-(hydroxymethyl)thiazole-4-carboxamide], 0.0631 nM.
With `Cc1cc(C(=O)N[C@H]2CC[C@@H](NC(=O)c3cc(F)cnc3Oc3cccc(-c4ccc(CCCN5C[C@@H](C)N[C@@H](C)C5)cc4)c3)CC2)[nH]n1` [Example 156, 2-(4′-(3-((3S,5R)-3,5-Dimethylpiperazin-1-yl)propyl)biphenyl-3-yloxy)-5-fluoro-N-((1s,4s)-4-(3-methyl-1H-pyrazole-5-carboxamido)cyclohexyl)nicotinamide], the IC50 was 0.126 nM.
Consider `Cc1cc(C(=O)N[C@H]2CC[C@@H](NC(=O)c3cc(F)cnc3Oc3cccc(-c4cccc(CCCN5C[C@@H](C)N[C@@H](C)C5)c4)c3)CC2)nn1C` [Example 126, N-((1s,4s)-4-(1,5-dimethyl-1H-pyrazole-3-carboxamido)cyclohexyl)-2-(3′-(3-((3S,5R)-3,5-dimethylpiperazin-1-yl)propyl)biphenyl-3-yloxy)-5-fluoronicotinamide], for which the IC50 is 0.0501 nM.
Under `CC(C)c1nc(C(=O)N[C@H]2CC[C@@H](NC(=O)c3cc(F)cnc3Oc3cccc(-c4ccc(O)cc4CN4CCOCC4)c3)CC2)cs1` [Example 39, N-((1s,4s)-4-(5-fluoro-2-(4′-hydroxy-2′-(morpholinomethyl)biphenyl-3-yloxy)nicotinamido)cyclohexyl)-2-isopropylthiazole-4-carboxamide] stands 0.02 nM; under `C[C@@H]1CN(CCc2ccc(-c3cccc(Oc4ncc(F)cc4C(=O)N[C@H]4CC[C@@H](NC(=O)c5cnc6ccccc6n5)CC4)c3)cc2)C[C@H](C)N1` [Example 99, N-((1s,4s)-4-(2-(4′-(2-((3S,5R)-3,5-dimethylpiperazin-1-yl)ethyl)biphenyl-3-yloxy)-5-fluoronicotinamido)cyclohexyl)quinoxaline-2-carboxamide], 0.0794 nM.
For `Cc1nc(C(=O)N[C@H]2CC[C@@H](NC(=O)c3cc(F)cnc3Oc3cccc(-c4ccc(CN5CCNCC5)cc4O)c3)CC2)cs1` [Example 57, N-((1s,4s)-4-(5-fluoro-2-(2′-hydroxy-4′-(piperazin-1-ylmethyl)biphenyl-3-yloxy)nicotinamido)cyclohexyl)-2-methylthiazole-4-carboxamide], the IC50 was 0.0631 nM.
Next, `Cc1csc(C(=O)N[C@H]2CC[C@@H](NC(=O)c3cc(F)cnc3Oc3cccc(-c4ccc(CN5CCN(CC(=O)NC(C)C)CC5)cc4CN4CCOCC4)c3)CC2)n1` [Example 198, N-((1s,4s)-4-(5-fluoro-2-(4′-((4-(2-(isopropylamino)-2-oxoethyl)piperazin-1-yl)methyl)-2′-(morpholinomethyl)biphenyl-3-yloxy)nicotinamido)cyclohexyl)-4-methylthiazole-2-carboxamide]: 0.0251 nM; `O=C(N[C@H]1CC[C@@H](NC(=O)c2cc(F)cnc2Oc2cccc(-c3ccc(CNCCCN4CCOCC4)cc3)c2)CC1)c1cn2cc(F)ccc2n1` [Example 115, 6-fluoro-N-((1s,4s)-4-(5-fluoro-2-(4′-((3-morpholinopropylamino)methyl)biphenyl-3-yloxy)nicotinamido)cyclohexyl)imidazo[1,2-a]pyridine-2-carboxamide]: 0.631 nM.
For the compound `C[C@@H]1CN(Cc2ccc(-c3cccc(Oc4ncc(F)cc4C(=O)N[C@H]4CC[C@@H](NC(=O)c5cc6ccccn6n5)CC4)c3)cc2O)C[C@H](C)N1` [Example 97, N-((1s,4s)-4-(2-(4′-(((3S,5R)-3,5-dimethylpiperazin-1-yl)methyl)-3′-hydroxybiphenyl-3-yloxy)-5-fluoronicotinamido)cyclohexyl)pyrazolo[1,5-a]pyridine-2-carboxamide], the IC50 was 0.126 nM.
Take `O=C(N[C@H]1CC[C@@H](NC(=O)c2cc(F)cnc2Oc2cccc(-c3ccc(CCCN4CCNCC4)cc3)c2)CC1)c1cc2n(n1)CCCC2` [Example 118, N-((1s,4s)-4-(5-fluoro-2-(4′-(3-(piperazin-1-yl)propyl)biphenyl-3-yloxy)nicotinamido)cyclohexyl)-4,5,6,7-tetrahydropyrazolo[1,5-a]pyridine-2-carboxamide]: the IC50 was 0.0398 nM.
`Cc1nc(C(=O)N[C@H]2CC[C@@H](NC(=O)c3cc(F)cnc3Oc3cccc(-c4ccc(O)cc4CN4CCCOCC4)c3)CC2)cs1` [Example 15, N-((1s,4s)-4-(2-(2′-((1,4-oxazepan-4-yl)methyl)-4′-hydroxybiphenyl-3-yloxy)-5-fluoronicotinamido)cyclohexyl)-2-methylthiazole-4-carboxamide]: the IC50 is 0.02 nM.
Under `Cc1cc(C)n2ncc(C(=O)N[C@H]3CC[C@@H](NC(=O)c4cc(F)cnc4Oc4cccc(-c5ccc(CN6C[C@@H](C)N[C@@H](C)C6)cc5CN5CCSCC5)c4)CC3)c2n1` [Example 193, N-((1s,4s)-4-(2-(4′-(((3S,5R)-3,5-dimethylpiperazin-1-yl)methyl)-2′-(thiomorpholinomethyl)biphenyl-3-yloxy)-5-fluoronicotinamido)cyclohexyl)-5,7-dimethylpyrazolo[1,5-a]pyrimidine-3-carboxamide] stands 0.0251 nM.
As to `CC(C)NC(=O)CN1CCN(Cc2ccc(-c3cccc(Oc4ncc(F)cc4C(=O)N[C@H]4CC[C@@H](NC(=O)c5cc6n(n5)CCCC6)CC4)c3)c(CN3CCOCC3)c2)CC1` [Example 200, N-((1s,4s)-4-(5-fluoro-2-(4′-((4-(2-(isopropylamino)-2-oxoethyl)piperazin-1-yl)methyl)-2′-(morpholinomethyl)biphenyl-3-yloxy)nicotinamido)cyclohexyl)-4,5,6,7-tetrahydropyrazolo[1,5-a]pyridine-2-carboxamide], the IC50 was 0.0251 nM.
Next, `Cc1cc(C(=O)N[C@H]2CC[C@@H](NC(=O)c3cc(F)cnc3Oc3cccc(-c4cccc(CN5C[C@@H](C)N[C@@H](C)C5)c4)c3)CC2)nn1C` [Example 72, N-((1s,4s)-4-(1,5-dimethyl-1H-pyrazole-3-carboxamido)cyclohexyl)-2-(3′-(((3S,5R)-3,5-dimethylpiperazin-1-yl)methyl)biphenyl-3-yloxy)-5-fluoronicotinamide]: 0.0631 nM.
Under `Cc1nc(C(=O)N[C@H]2CC[C@@H](NC(=O)c3cc(F)cnc3Oc3cccc(-c4ccc(O)cc4CN4CCCCCC4)c3)CC2)cs1` [Example 23, N-((1s,4s)-4-(2-(2′-(azepan-1-ylmethyl)-4′-hydroxybiphenyl-3-yloxy)-5-fluoronicotinamido)cyclohexyl)-2-methylthiazole-4-carboxamide] stands 0.316 nM; under `CC(=O)N1CCN(Cc2cc(O)ccc2-c2cccc(Oc3ncc(F)cc3C(=O)N[C@H]3CC[C@@H](NC(=O)c4csc(C)n4)CC3)c2)CC1` [Example 29, N-((1s,4s)-4-(2-(2′-((4-acetylpiperazin-1-yl)methyl)-4′-hydroxybiphenyl-3-yloxy)-5-fluoronicotinamido)cyclohexyl)-2-methylthiazole-4-carboxamide], 0.0398 nM; under `CCCN1CCN(Cc2ccc(-c3cccc(Oc4ncc(F)cc4C(=O)N[C@H]4CC[C@@H](NC(=O)c5cc(C)n(C)n5)CC4)c3)c(CN3CCOCC3)c2)CC1` [Example 181, N-((1s,4s)-4-(1,5-Dimethyl-1H-pyrazole-3-carboxamido)cyclohexyl)-5-fluoro-2-(2′-(morpholinomethyl)-4′-((4-propylpiperazin-1-yl)methyl)biphenyl-3-yloxy)nicotinamide], 0.251 nM.
Next, `CN(C)CCN(C)Cc1ccc(-c2cccc(Oc3ncc(F)cc3C(=O)N[C@H]3CC[C@@H](NC(=O)c4cn5c(n4)CCCC5)CC3)c2)cc1` [Example 105, N-((1s,4s)-4-(2-(4′-(((2-(dimethylamino)ethyl)(methyl)amino)methyl)biphenyl-3-yloxy) 5-fluoronicotinamido)cyclohexyl)-5,6,7,8-tetrahydroimidazo[1,2-a]pyridine-2-carboxamide]: 0.631 nM.
